{"source": "patent US20110195432A1", "about": "“METHODS FOR THE SELECTION OF THERAPEUTIC TREATMENTS FOR CANCER” (priority 2008, published 2011)", "key": {"PSA ARE": {"tested_on": "PSA ARE", "conditions": "LNCaP cells; 20 μM sulforaphane, 24 hours; versus vehicle-treated cells", "procedure": "To determine whether AR protein depletion from its target genes' androgen response elements (AREs) was responsible for reduced target gene expression, chromatin immunoprecipitation (ChIP) was performed. Cells were cross-linked with formaldehyde and reactions were stopped with glycine. Crosslinked cells were re-suspended in RIPA with SigmaFast protease inhibitors tablets (Sigma, St. Louis, Mo.) and sonicated on ice using a Branson Digital Sonifer model 450 (Branson Ultrasonics Co., Danbury, Conn.). Sonicated cellular lysates were used for Matrix ChIP (Flanagin et al., Nucleic Acids Res 36: e17, 2008) Immunoprecipitations were performed without adding an antibody or with 500 ng of an anti-AR antibody. PCR reactions were amplified using a thermocycler (see supplementary methods). ChIP PCR primer sequences were as follows:\nPrimers were synthesized by IDT (Coralville, Iowa). ChIP PCR program consisted of: 95° C. for 5 minutes for 1 cycle; 95° C. for 30 seconds, 58° C.(TMPRSS2-ERG) or 60° C. (PSA) for 30 seconds, and 72° C. for 30 seconds for 35-40 cycles; 72° C. final extension for 5 minutes. […] Bands were imaged for densitometry using a Gel Doc XR UV transilluminator and Quantity One software (Bio-Rad, Hercules, Calif.)."}, "recombinant HDAC6": {"molecular_target": "T1, recombinant HDAC6 (Homo sapiens, UniProt Q9UBN7)", "T1 sequence (Q9UBN7 1-1215)": "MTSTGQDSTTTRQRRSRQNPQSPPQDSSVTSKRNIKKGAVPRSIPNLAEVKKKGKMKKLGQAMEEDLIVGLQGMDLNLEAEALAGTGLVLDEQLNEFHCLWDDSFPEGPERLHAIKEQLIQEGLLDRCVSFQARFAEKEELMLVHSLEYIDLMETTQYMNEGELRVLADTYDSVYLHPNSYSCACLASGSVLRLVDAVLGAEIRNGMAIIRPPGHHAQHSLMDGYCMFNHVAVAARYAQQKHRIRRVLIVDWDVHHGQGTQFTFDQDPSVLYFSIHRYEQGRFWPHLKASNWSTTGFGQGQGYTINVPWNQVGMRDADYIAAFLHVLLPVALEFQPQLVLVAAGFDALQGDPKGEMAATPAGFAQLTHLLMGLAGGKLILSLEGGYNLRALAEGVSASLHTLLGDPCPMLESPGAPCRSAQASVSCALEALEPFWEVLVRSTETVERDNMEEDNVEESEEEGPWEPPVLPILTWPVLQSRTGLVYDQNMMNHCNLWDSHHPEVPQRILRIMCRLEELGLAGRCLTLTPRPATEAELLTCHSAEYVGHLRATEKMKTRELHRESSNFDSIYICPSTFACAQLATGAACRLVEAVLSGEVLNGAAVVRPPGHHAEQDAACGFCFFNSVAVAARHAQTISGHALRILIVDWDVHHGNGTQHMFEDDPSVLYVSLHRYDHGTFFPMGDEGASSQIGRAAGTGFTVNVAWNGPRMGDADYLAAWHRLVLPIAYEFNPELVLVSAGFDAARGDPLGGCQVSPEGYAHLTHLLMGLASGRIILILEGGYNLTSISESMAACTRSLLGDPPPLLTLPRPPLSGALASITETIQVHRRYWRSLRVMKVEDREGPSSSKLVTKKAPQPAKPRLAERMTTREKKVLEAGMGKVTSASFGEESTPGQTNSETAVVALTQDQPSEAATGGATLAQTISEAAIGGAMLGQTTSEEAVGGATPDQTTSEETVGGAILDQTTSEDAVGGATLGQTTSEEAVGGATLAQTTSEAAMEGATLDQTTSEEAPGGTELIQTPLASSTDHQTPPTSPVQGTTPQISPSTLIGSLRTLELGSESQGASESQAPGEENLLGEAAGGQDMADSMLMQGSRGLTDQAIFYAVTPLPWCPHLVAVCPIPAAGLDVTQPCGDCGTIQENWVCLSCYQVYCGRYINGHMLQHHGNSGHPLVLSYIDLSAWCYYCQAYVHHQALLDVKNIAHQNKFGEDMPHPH", "conditions": "cell-free; 7.5 or 15 μM sulforaphane, or 400 nM TSA; versus vehicle-treated HDAC6 control"}, "PSA and TMPRSS2-ERG": {"tested_on": "PSA and TMPRSS2-ERG", "conditions": "VCaP cells; 24 hours; increasing doses; vehicle set to 1", "method": "To determine the functional consequences of sulforaphane-mediated reduction in AR protein levels, real-time PCR was conducted for several AR target genes, including PSA and the TMPRSS2-ERG gene fusion present in VCaP cells (FIGS. 5A-C). Cells were lysed in Trizol (Invitrogen, Carlsbad, Calif.) and then purified with the RNAEasy Kit (Qiagen, Valencia, Calif.). One μg of RNA was reverse-transcribed using the Omniscript RT kit (Qiagen, Valencia, Calif.). Real-time PCR primer sequences and conditions were as follows.\nThe real-time PCR program consisted of: 50° C. for 2 minutes for 1 cycle; 95° C. for 10 minutes for 1 cycle; 95° C. for 15 seconds and 60° C. for 15 seconds for a total of 40 cycles. Standard curves were generated by measuring expression of target genes and 18S rRNA in serial dilutions of a mock-treated control. All samples were run in triplicate. The vehicle-treated sample was set to 1."}, "ERG": {"tested_on": "ERG", "conditions": "VCaP cells; 20 μM sulforaphane, 24 hours; treated in parallel with ChIP", "procedure": "Immunoprecipitation and immunoblotting were performed as described (Qian et al., Clin. Cancer Res. 12:634-42, 2006). The following antibodies used in immunoblotting or immunoprecipitations (indicated dilutions are for immunoblotting): AR (1:1000, #06-680 Upstate, Billerica, Mass.); acetylated lysine (#05-515 Upstate, Billerica, Mass.); acetylated tubulin (1:2000, #T6793 Sigma, St. Louis, Mo.); alpha-tubulin (1:10,000, #T6074 Sigma, St. Louis, Mo.); beta-actin (1:5000, #A5441 Sigma, St. Louis, Mo.); ERG-1/2/3, (1:5000, #sc-354X Santa Cruz, Santa Cruz, Calif.); FLAG epitope (#F7425 Sigma, St. Louis, Mo.); GAPDH (1:5000, #sc-32233 Santa Cruz, Santa Cruz, Calif.); HDAC6 (1:1000, #sc-11420 Santa Cruz); HSP90 (1:1000, #SPA-840 Stressgen, Ann Arbor, Mich.); mouse IgG (#sc-2025 Santa Cruz, Santa Cruz, Calif.). The following secondary antibodies were used: ECL-conjugated anti-mouse IgG, (1:5000, #A6782 Sigma, St. Louis, Mo.); ECL-conjugated anti-rabbit IgG (1:3000, #NA934 Amersham, Piscataway, N.J. or 1:10,000, #sc-2004 Santa Cruz, Santa Cruz, Calif.). X-ray exposures were scanned as uncompressed images and bands were quantified by densitometry with Quantity One software (Bio-Rad, Hercules, Calif.). Intensity values were normalized to those of the endogenous controls. […] Enrichment was calculated as: (intensity IP/intensity input)/(intensity IgG/intensity input) or intensity IP/input (FIG. 1B)."}, "AR": {"tested_on": "AR", "test": "Western blot of AR protein levels, VCaP cells", "format": "cell-based", "conditions": "24 hours", "from_the_text": "X-ray exposures were scanned as uncompressed images and bands were quantified by densitometry with Quantity One software (Bio-Rad, Hercules, Calif.). Intensity values were normalized to those of the endogenous controls. The vehicle sample was set to 1."}, "HDAC6": {"tested_on": "HDAC6", "test": "Western blot of HDAC6 protein levels, LNCaP cells", "format": "cell-based"}}, "note": "“Also recorded” adds a separate entry of the source.", "data": [{"molecule": "C[S+]([O-])CCCCN=C=S", "note": "(centres unmarked) [sulforaphane, 1-Isothiocyanato-4-methylsulfinylbutane]", "values": [{"measurement": "enrichment of AR at the PSA ARE", "setting": "PSA ARE", "result": "reduced enrichment"}, {"measurement": "HDAC6 deacetylase activity on tubulin", "setting": "recombinant HDAC6", "result": "decreased HDAC6 deacetylase activity; also recorded: inhibited HDAC6 deacetylase activity"}, {"measurement": "AR target gene expression (PSA, TMPRSS2-ERG)", "setting": "PSA and TMPRSS2-ERG", "result": "dose-dependent reduction"}, {"measurement": "levels of ERG protein in whole cell lysates", "setting": "ERG", "result": "near absent levels"}, {"measurement": "levels of AR protein in whole cell lysates", "setting": "AR; 20 μM sulforaphane, treated in parallel with ChIP", "result": "near absent levels"}, {"measurement": "AR protein levels", "setting": "AR; all sulforaphane dose levels", "result": "declined"}, {"measurement": "HDAC6 protein levels at later time points", "setting": "HDAC6; 16 hours", "result": "reduced HDAC6 protein levels"}, {"measurement": "HDAC6 protein expression in HDAC6-over-expressing cells", "setting": "HDAC6; FLAG-HDAC6 transfected LNCaP cells, sulforaphane-treated, versus empty-vector, sulforaphane-treated cells", "result": "restored"}, {"measurement": "HDAC6 protein levels with concomitant proteasome inhibitor", "setting": "HDAC6; LNCaP cells, 16 hours, 20 μM sulforaphane with 20 μM MG132 versus sulforaphane-treated cells", "result": "restored HDAC6 protein levels"}, {"measurement": "levels of HDAC6 in input whole cell lysate", "setting": "HDAC6; LNCaP cells, early time point, 4 hours, versus vehicle", "result": "similar; also recorded: without changing its levels"}, {"measurement": "HDAC6 protein levels", "setting": "HDAC6; empty-vector transfected LNCaP cells, 16-hour treatment with 15 nM sulforaphane versus vehicle", "result": "reduced"}]}]}
